How the values were obtained:
Assay in all cases: isothermal titration calorimetry
Type in all cases: binding
FilZ [1] = biological target: T1, FilZ (Pseudoalteromonas tetraodonis, UniProt A0AA37S473, G101A)
T1 construct: gene GCM10007914_23770; single PilZ domain protein

FilZ [2] = biological target: T2, FilZ (Pseudoalteromonas tetraodonis, UniProt A0AA37S473)
T2 construct: gene GCM10007914_23770; single PilZ domain protein
T2 sequence (A0AA37S473 1-133): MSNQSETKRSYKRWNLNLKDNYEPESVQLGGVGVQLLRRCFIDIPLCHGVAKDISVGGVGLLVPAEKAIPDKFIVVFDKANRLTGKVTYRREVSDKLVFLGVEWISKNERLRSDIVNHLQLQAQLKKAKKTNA

FilZ [3] = biological target: T3, FilZ (Pseudoalteromonas tetraodonis, UniProt A0AA37S473, G58A)
T3 construct: gene GCM10007914_23770; single PilZ domain protein
T3 sequence (A0AA37S473 entry or part of it G58A): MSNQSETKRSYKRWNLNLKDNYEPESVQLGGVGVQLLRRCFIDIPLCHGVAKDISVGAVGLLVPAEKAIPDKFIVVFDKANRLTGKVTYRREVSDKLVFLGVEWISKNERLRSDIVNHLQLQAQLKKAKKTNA

FilZ [4] = biological target: T4, FilZ (Pseudoalteromonas tetraodonis, UniProt A0AA37S473, D53A)
T4 construct: gene GCM10007914_23770; single PilZ domain protein
T4 sequence (A0AA37S473 entry or part of it D53A): as the sequence (A0AA37S473 entry or part of it G58A) above, with D53A, A58G counted along it

FilZ [5] = biological target: T5, FilZ (Pseudoalteromonas tetraodonis, UniProt A0AA37S473, R9A)
T5 construct: gene GCM10007914_23770; single PilZ domain protein
T5 sequence (A0AA37S473 entry or part of it R9A): as the sequence (A0AA37S473 entry or part of it G58A) above, with R9A, A58G counted along it

FilZ [6] = biological target: T6, FilZ (Pseudoalteromonas tetraodonis, UniProt A0AA37S473, R13A)
T6 construct: gene GCM10007914_23770; single PilZ domain protein
T6 sequence (A0AA37S473 entry or part of it R13A): as the sequence (A0AA37S473 entry or part of it G58A) above, with R13A, A58G counted along it

T1 sequence (A0AA37S473 entry or part of it G101A): as the sequence (A0AA37S473 entry or part of it G58A) above, with A58G, G101A counted along it

Nc1nc2c(ncn2[C@@H]2O[C@@H]3COP(=O)(O)O[C@H]4[C@@H](O)[C@H](n5cnc6c(=O)[nH]c(N)nc65)O[C@@H]4COP(=O)(O)O[C@H]3[C@H]2O)c(=O)[nH]1 [c-di-GMP] was tested, and the “completely lost the ability to bind” value (FilZ [1]) was “Mutants R9A, R13A, D53A, G58A, and G101A all completely lost the ability to bind c-di-GMP”, the Kd (FilZ [2]) was 230 nM and the “completely lost the ability to bind” value (FilZ [3]) was “Mutants R9A, R13A, D53A, G58A, and G101A all completely lost the ability to bind c-di-GMP”. The “completely lost the ability to bind” value (FilZ [4]) was “Mutants R9A, R13A, D53A, G58A, and G101A all completely lost the ability to bind c-di-GMP”, the “completely lost the ability to bind” value (FilZ [5]) was “Mutants R9A, R13A, D53A, G58A, and G101A all completely lost the ability to bind c-di-GMP” and the “completely lost the ability to bind” value (FilZ [6]) was “Mutants R9A, R13A, D53A, G58A, and G101A all completely lost the ability to bind c-di-GMP”.
